The text below walks through data of ChEMBL document CHEMBL3351799, “Bioavailable pyrrolo-benzo-1,4-diazines as Na(v)1.7 sodium channel blockers for the treatment of pain” (Bioorg Med Chem Lett, 2014).

The nature of series [1]: in vivo. The following applies: Sprague-Dawley, rat, plasma.
Series [2] is described as follows: Drug level in Sprague-Dawley rat brain after 6 hrs. In kind it is ADME, tissue-based. Particulars: read-out: Drug uptake.
Series [3] in a line: in vivo. Particulars: Sprague-Dawley, rat, brain/plasma.

A word on the AUC: it is concentration integrated over time. Lower therefore signals low exposure. `COc1ccc2c(c1)NC1(CCN(C(=O)c3cccc4ncccc34)CC1)c1cccn1-2` returned an AUC at 6 h in the series “in vivo [1]” of 16.2 µM·h.

Usually Kp stands for tissue or fluid exposure divided by exposure in the circulation. With `COc1ccc2c(c1)NC1(CCN(C(=O)c3ccc(OC)c(N(C)C)c3)CC1)c1cccn1-2`, in series [2], the concentration at 6 h is 257 ng/g. Further, the Kp at 6 h in the series “in vivo [3]” turned out to be 0.2. Moreover, in the series “in vivo [1]”, the area under the curve (AUC) at 6 h was 20.3 µM·h.
